# Reference: US20260184689A1, “PIPERIDINE-SUBSTITUTED BENZOIC ACID COMPOUND, AND PHARMACEUTICAL COMPOSITION AND USE THEREOF” (SHANGHAI YISHENG BIOPHARMACEUTICAL COMPANY LIMITED, priority 2022, published 2026)
# Legend:
# [1] = tested on: Sheep Anti-Rat Fx1A Serum induced Heymann nephritis; assay: In vivo efficacy assay of passive Heymann nephritis in rats; settings: male SD rats, intragastric twice a day for 14 days, 5, 20 and 60 mpk; LNP023 60 mpk
# Description: Experimental objective: To investigate the ability of the compounds of the present disclosure to improve renal function of Sheep Anti-Rat Fx1A Serum induced Heymann nephritis in rats, including the evaluation of reducing proteinuria level and improving renal tissue damage.
# Experimental animals: Male SD rats, 7 to 10 weeks old, weighing between 200 to 300 g.
# Urine was collected from rats on D-2 before administration. On D1, the first day of the experiment, animals in the control group (group 1) were administered 5 mL/kg of Sheep Non-Immune serum via a single tail vein injection; animals in the model and administration groups (groups 2 to 6) were administered 5 mL/kg of Sheep Anti-Rat Fx1A Serum via a single tail vein injection.
# The rats were treated by intragastric administration twice a day with an interval of 8 hours and a volume of 10 mL/kg. On D1, 1 hour before modeling, animals in groups 1 and 2 were administered blank vehicle 20% PEG400/10% Solutol/70% water; animals in group 3 were administered LNP023 (60 mpk); animals in groups 4 to 6 were administered different concentrations of synthetic compounds (5 mpk, 20 mpk, and 60 mpk); 8 hours after the first administration, each group was administered again with the same dose and volume as the first administration. From D2 to D14, animals in each group were administered different compounds or vehicles for 14 consecutive days (including the first day) according to the dose, volume, administration method, and frequency on D1.
# Urine collection: Urine samples were collected from rats on D-2 before administration, and 2 to 4 hours and 4 to 6 hours after the first administration on D4, D6, D8, D11, and D14 after administration, transferred to EP tubes and stored in a refrigerator at −80° C. to −60° C. for the detection of urine protein and creatinine in rats.
# Kidney sample collection: All animals were euthanized with CO2 inhalation anesthesia on Day 15, and bilateral kidneys were collected. The left kidney was cut transversely, and the right kidney was cut longitudinally. Half of the transversely cut kidney (left side) and half of the longitudinally cut kidney (right side) were fixed in formalin (placed in the same EP tube).
# 4. […] Urine total protein (uTP) in rats was detected without dilution; if exceeding the upper detection limit, it was 10-fold diluted (10 μL of sample+90 μL of saline (0.9% saline)) first (Decrease mode); if still exceeding the upper detection limit after 10-fold dilution, it was 100-fold diluted (2 μL of sample+198 μL of saline (0.9% saline)) (Increase mode). Data were read by the analytical instrument HITACHI LST008AS(P). • (2) Kidney pathological scoring: The degree of drug damage to rat kidneys (paraffin sections) was analyzed by HE staining. […]
# [2] = tested on: LPS-induced complement activation; assay: In vivo efficacy assay of LPS-induced complement activation in mice; settings: female C57BL/6J mice, LPS 100 μg intraperitoneal, PO
# Protocol: Experimental objective: To investigate the inhibitory effect of the compounds of the present disclosure on complement activation in mice induced by LPS stimulation.
# Experimental animals: Female C57BL/6J mice, 7 to 9 weeks old, weighing between 17 to 23 g.
# Experimental procedure: 100 μg of lipopolysaccharide (LPS) in Salmonella typhimurium (Sigma) dissolved in 100 μL of sterile PBS was intraperitoneally injected to induce complement activation in mice. Negative control animals were intraperitoneally injected 100 μL of sterile PBS and administered alone by tube feeding (PO). Positive control animals were intraperitoneally injected LPS and PO drug vehicles (0.5% (w/v) methyl cellulose and 0.5% (v/v) Tween 80).
# Sample collection: 0.3 mL of blood samples were collected from the orbital venous plexus. All blood samples were added to commercially available EDTA-K2 anticoagulant tubes with a specification of 1.5 mL. After collection, within half an hour, the blood sample was centrifuged at 4° C., 3000 g for 10 min to aspirate the supernatant plasma, which was put in dry ice immediately, and stored in a refrigerator at −80° C. for Western blot analysis of downstream C3d protein levels after complement activation.
# Sample analysis: Mouse plasma (5 μL)+Lysis buffer (27.5 μL)+Loading buffer (12.5 μL)+Reducing buffer (5 μL) were mixed well and incubated at 100° C. for 15 min with a loading volume of 5 μL/well, i.e., a loading volume of plasma of 0.5 μL per well.
# Test compounds: positive compound LNPO23, the final product of Example 158, the final products (compound 159A and compound 159B) of Example 159, and compound 11 of Example 75.
# [3] = Pharmacokinetic activity assay in mice; type: in vivo; settings: IV 1 mg/kg, PO 10 mg/kg
# Protocol: Experimental objective: The test substance was administered to mice via single-dose intravenous and oral gavage routes, and its plasma concentration was measured to evaluate the pharmacokinetic characteristics in mice.
# Experimental animals: C57 mice or other available test mice
# IV dose: 1 mg/kg; vehicle: 0.5% DMSO or 0.5% MeOH-5% pharmaceutical grade polyethylene glycol-15 hydroxystearate-PBS
# Sample collection: 0.03 mL of blood samples were collected from the saphenous vein in experimental animals by puncture at each time point, and the actual blood collection time was recorded. All blood samples were added to commercially available EDTA-K2 anticoagulant tubes with a specification of 1.5 mL (supplied by Jiangsu Kangjian Medical Apparatus Co., Ltd.). After collection, within half an hour, the blood sample was centrifuged at 4° C., 3000 g for 10 min to aspirate the supernatant plasma, which was put in dry ice immediately, and stored in a refrigerator at −80° C. for LCMS/MS analysis.
# Blood sampling points: 5 min, 15 min, 30 min, 1 hour, 2 hours, 4 hours, 6 hours, 8 hours, 12 hours, 20 hours, 24 hours.
# Test compounds: positive compound LNP023, the final product of Example 158, the final products (compound 159A and compound 159B) of Example 159, and compound 11 of Example 75.
compound,measurement,setting,value
"CCCC1CCN(C(=O)c2c(OC)cc(C)c3[nH]ccc23)C(c2ccc(C(=O)O)cc2)C1 (single isomer, unassigned) [Compound 159B]","performance in the kidney disease model through urine and kidney pathology analysis, compared with LNP023",[1],performed better
same,"inhibition of LPS-induced complement activation (plasma C3d levels), compared with LNP023",[2],superior or equivalent
same,"clearance rate during in vivo metabolism, compared with LNP023",[3],comparable or superior
same,"half-life during in vivo metabolism, compared with LNP023",[3],comparable or superior
